The values that follow come from patent US12662714B2, “Method for separation of adjacent lanthanide elements” (UT-Battelle, LLC, priority 2022, dated 2026).

A value given as a limit tells only on which side of the number the result lay.

For data set [1] the following is noted: REE(III)-HCl-EHEHPA system; cited from earlier work.
A short description of data set [2]: SAXS, radius of gyration of aggregates in solution. The format is physicochemical. The protocol: The mesoscale structure of 1 and 1-Pr complexes in the aqueous solution and the local coordination environment around Pr in the 1-Pr structure were investigated using small-angle X-ray scattering (SAXS) and extended X-ray absorption fine structure (EXAFS) spectroscopy at the Pr L3 edge, respectively. In the absence of Pr, 13 mM of 1 in 1 M HNO3 forms large aggregates with a radius of gyration (Rg) of ˜15 A, as represented by the steepest slope in FIG. 5a. The addition of smaller amounts of Pr (2.5 mM) reduces the aggregate size in solution by ˜5 A.
Under conditions where 1 is expected to be fully coordinated with Pr (assuming the formation of [Pr-(1)2(NO3)3], when [Pr]=7.5 mM), the aggregates further reduce in size (Rg=6.7 A). This is consistent with the trends seen in the NMR data above. In addition, variable temperature NMR was taken of 1 without and with Pr. At elevated temperatures (up to 313 K), the spectral quality of 1 degrades dramatically and is irreversible, which is indicative of additional aggregate formation in solution. In the presence of Pr, however, the ^1H chemical shifts representing 1 remain unchanged and the peaks narrow due to increased molecular motion.

Data set [3] can be described thus: Solubility. The class given is physicochemical. An excerpt:
The solubility of 1 in 0.9 M nitric acid (HNO3) is >0.2 M. The three DGAs selected for this study were: N,N′-dimethyl-N,N′-di(n-octyl)diglycolamide (DMDODGA, 3), N,N,N′,N′-tetra(n-octyl)diglycolamide (TODGA, 4), and N,N-didodecyl-2-((1-hexyl-2-oxopiperidin-3-yl)oxy)acetamide (DDHPA, 5), whose structures are shown above. […] However, they differ in terms of binding affinity for lanthanides in the order 3>4>5. The stability of DGA-Ln complexes is affected by the size of N-alkyl substituents on the DGA ligand; larger substituents tend to obstruct the metal ion binding site that is decorated with three oxygen donor groups, resulting in diminished affinity for Lns with lower effective nuclear charge. Ligand 2, with unconstrained amide groups, was synthesized as a control substrate.
However, its performance in separating Lns is very different.

Data set [4] in a line: 1H NMR titration, binding constants for La complexes. Conditions: 1 M DNO3. An excerpt: Complexation of 1 with lanthanides was further assessed using nuclear magnetic resonance (NMR) spectroscopy. […] As the concentration of La increases (top to bottom), a downfield shift of ˜1.1 ppm occurs in the most downfield aromatic ^1H of 1, confirming complex formation. […] For 1 alone, some heterogeneity and broadening in the peak structure is observed, which can be attributed to aggregate formation. While the ethylene glycol units solubilize 1, the hydrophobic cores still cluster together to form aggregate structures (vide infra). As the La concentration increases, it disrupts these clusters and stabilizes 1-La units. The change in chemical shift of the most downfield aromatic ^1H was used to assess binding constants for La complexes with 1 in 1 M DNO3. The results were fitted using commercial software to yield binding constants of K1>10^2 M^−1 and K2>>10^5 M^−1 for the 1:1 and 2:1 ligand to metal binding modes, respectively. […] In the Lu titration, some downfield shift was observed, but the peaks became increasingly heterogenous and broad. This may be attributed to poor binding affinity where transient interactions occur, but no stable structure was formed, which was consistent with the selectivity data presented above.

Data set [5] in a line: Extraction of 14 Lns from aqueous phase into oil phase. The protocol: (§1) General procedure: a 500 microliter (μL) aqueous phase consisting of 7 mM Ln(III) (0.5 mM of each Ln(III)) in 1 M HNO3 without or with aqBLPhen 1 (3, 13, or 25 mM) was contacted with an equal volume of organic phase containing 0.1 M DGA (3, 4, or 5). The two phases were contacted in a 1:1 ratio of organic/aqueous by end-over-end rotation in individual 1.8 mL capacity snap-top Eppendorf tubes using a rotating wheel in an airbox set at 25.5±0.5° C. Contacts were performed in triplicate with a contact time of 1 hour. The samples were centrifuged at 1811 g for 2 min at room temperature to separate the phases. Each triplicate was then sub-sampled, using a 300 μL aliquot of the aqueous phase transferred to individual polypropylene tubes and diluted with 2% HNO3 for analysis using ICP-MS or ICP-OES. Two samples of the initial lanthanide solution were similarly prepared.
(§2) The ability of 1 and DGA to separate Lns was evaluated using a two-component, immiscible solvent system: nitric acid (aqueous phase containing 1) and n-dodecane with 10 vol % 1-octanol (oil phase containing DGA). The amount of Ln partitioned from the aqueous phase into the oil phase was measured using inductively coupled plasma optical emission spectroscopy or mass spectrometry. The Ln concentration in each phase was then used to calculate the separation efficiency.
(§3) The percentage of Lns in the aqueous and the oil phases is presented in FIGS. 1a-1i. for each DGA in the absence and presence of the aqueous complexant 1 (E=([Ln1]/[Ln1]0)×100%). The distribution ratios (i.e., D=[Ln1]org/[Ln1]aq) for select Lns are listed in Table 1, which also include selectivities (i.e., SFLn1/Ln2=DLn1/DLn2), for several Ln pairs. An efficient separation of Lns was achieved when DLn1>1 and DLn2<1 or ELn1>50% and ELn2<50%. […] Neither of the three DGAs can separate Lns in a single extraction stage.

Data set [6] in a line: Solvent extraction of Lns, distribution ratio of Gd. Conditions: 0.1 M DGA, 1 M HNO3, 1 h. Here is the method:
as §1, §2, §3

Data set [7] in a line: Solvent extraction of Lns, separation factor Gd/La. Conditions: 0.1 M DGA, 1 M HNO3, 1 h. The protocol:
as §1, §2, §3

The nature of data set [8]: Solvent extraction of Lns, separation factor Nd/Pr. Conditions: 0.1 M DGA, 1 M HNO3, 1 h. The protocol: as §1, §2, §3
The nature of data set [9]: Solvent extraction of Lns, separation factor Dy/Nd. Conditions: 0.1 M DGA, 1 M HNO3, 1 h. The protocol:
as §1, §2, §3

Data set [10] in a line: Solvent extraction of Lns, distribution ratio of Nd. Conditions: 0.1 M DGA, 1 M HNO3, 1 h. Here is the method:
as §1, §2, §3

Data set [11] can be described thus: Solvent extraction of Lns, separation factor Sm/Nd. Conditions: 0.1 M DGA, 1 M HNO3, 1 h. Here is the method:
as §1, §2, §3

A short description of data set [12]: Solvent extraction of Lns, separation factor Tb/Gd. Conditions: 0.1 M DGA, 1 M HNO3, 1 h. The protocol: as §1, §2, §3
A short description of data set [13]: Solvent extraction of Lns, distribution ratio of Sm. Conditions: 0.1 M DGA, 1 M HNO3, 1 h. Here is the method: as §1, §2, §3
Data set [14] can be described thus: Solvent extraction of Lns, distribution ratio of La. Conditions: 1 M HNO3, 1 h. The protocol:
as §1, §2, §3

[15] abbreviates: [1] 0 mM, 0.1 M DGA in n-dodecane with 10 vol % 1-octanol, 0.5 mM each Ln.

On to `CCCCC(CC)COP(=O)(O)CC(CC)CCCC` (stereo not shown) [EHEHPA, 2-ethylhexylphosphonic acid mono-(2-ethylhexyl) ester], for which, in data set [1], the “selectivity for Nd over Pr” value is on record as 1.17.
A word on the solubility: it is the concentration that dissolves in the medium under given conditions. Read a low solubility as a poorly soluble substance. With `O=c1[nH]c(COCCO)c(COCCO)c2cc3ccc4cc5c(COCCO)c(COCCO)[nH]c(=O)c5nc4c3nc12` [Ligand 1, 3,4,9,10-tetrakis((2-hydroxyethoxy)methyl)-2,11-dihydrodipyrido[3,4-b:4′,3′-j]1,10 phenanthroline-1,12-dione], the “reduction of aggregate size” value in [2] (13 mM of 1, Pr 2.5 mM) was approximately 5 A. Also, the “radius of gyration (Rg) of aggregates” value in data set [2] (13 mM of 1, [Pr]=7.5 mM) is given as 6.7 A; in data set [2] (13 mM of 1 in 1 M HNO3, absence of Pr) it was approximately 15 A. Further, the solubility in [3] (aqueous buffer, in 0.9 M nitric acid (HNO3)) is more than 200 mM. Also, the “binding constant K1 (1:1 ligand to metal)” value in [4] was > 10^2 M^−1. The “binding constant K2 (2:1 ligand to metal)” value in data set [4] is reported as > 10^5 M^−1.
For `O=C(c1ccc2ccc3ccc(C(=O)N(CCOCCO)CCOCCO)nc3c2n1)N(CCOCCO)CCOCCO` [Ligand 2], the aqueous solubility result in [3] (aqueous) is recorded as “excellent aqueous solubility”. For the same compound, the “affinity for light lanthanides as aqueous complexant” value in data set [5] (13 mM in aqueous phase, FIG. 2) is reported as “limited affinity for light lanthanides”.
As to `CCCCCCCCN(CCCCCCCC)C(=O)COCC(=O)N(CCCCCCCC)CCCCCCCC` [Ligand 4, N,N,N′,N′-tetra(n-octyl)diglycolamide], the DGd distribution ratio in [6] ([1] 0 mM) came to 386; in [6] ([1] 3 mM) it was 164; in [6] ([1] 13 mM) it was 19.3; in data set [6] ([1] 25 mM), 14.2. For the same compound, the SFGd/La separation factor was found to be 153 in [7] ([1] 0 mM), 783 in data set [7] ([1] 3 mM), 413 in data set [7] ([1] 13 mM) and 308 in data set [7] ([1] 25 mM). The SFNd/Pr separation factor in data set [8] ([1] 0 mM) is 2.2; in data set [8] ([1] 3 mM) it was 2.7; in [8] ([1] 13 mM) it was 2.2; in data set [8] ([1] 25 mM) it was 1.8. The SFDy/Nd separation factor was found to be 70 in data set [9] ([1] 0 mM), 408 in data set [9] ([1] 3 mM), 1052 in data set [9] ([1] 13 mM) and 782 in data set [9] ([1] 25 mM). In addition, the DNd distribution ratio was found to be 18.6 in data set [10] ([1] 0 mM), 2.18 in data set [10] ([1] 3 mM), 0.15 in data set [10] ([1] 13 mM) and 0.14 in [10] ([1] 25 mM). The “extraction of Lns from the aqueous phase into the oil phase” value in data set [5] (0.1 M DGA alone, 14 Lns 0.5 mM each, 1 M HNO3) is “reduced affinity for light Lns”. Also, the SFSm/Nd separation factor in data set [11] ([1] 0 mM) is on record as 6.4; in data set [11] ([1] 3 mM), 13; in [11] ([1] 13 mM), 16; in data set [11] ([1] 25 mM), 13. In addition, the SFTb/Gd separation factor in data set [12] ([1] 0 mM) is reported as 2.7; in data set [12] ([1] 3 mM) it was 3.4; in data set [12] ([1] 13 mM), 5.4; in data set [12] ([1] 25 mM), 5.3. Besides, the DSm distribution ratio in [13] ([1] 0 mM) is 120; in data set [13] ([1] 3 mM), 28.1; in data set [13] ([1] 13 mM) it was 2.35; in data set [13] ([1] 25 mM), 1.82. The DLa distribution ratio is 2.52 in data set [14] (setting [15]); 0.21 in data set [14] ([1] 3 mM, 0.1 M DGA); 0.05 in data set [14] ([1] 13 mM, 0.1 M DGA); 0.05 in data set [14] ([1] 25 mM, 0.1 M DGA).
Regarding `CCCCCCCCCCCCN(CCCCCCCCCCCC)C(=O)COC1CCCN(CCCCCC)C1=O` (stereo not shown) [Ligand 5, N,N-didodecyl-2-((1-hexyl-2-oxopiperidin-3-yl)oxy)acetamide], the DGd distribution ratio in data set [6] ([1] 0 mM) turned out to be 23.0; in data set [6] ([1] 3 mM) it was 13.4; in [6] ([1] 13 mM) it was 0.98; in data set [6] ([1] 25 mM) it was 0.88. In addition, the SFGd/La separation factor in [7] ([1] 0 mM) was found to be 128; in data set [7] ([1] 3 mM), 109; in data set [7] ([1] 13 mM), 12; in data set [7] ([1] 25 mM) it was 14. Also, the SFNd/Pr separation factor in [8] ([1] 0 mM) was 2.0; in [8] ([1] 3 mM), 1.8; in data set [8] ([1] 13 mM), 0.9; in [8] ([1] 25 mM) it was 1.0. Moreover, the SFDy/Nd separation factor was 130 in data set [9] ([1] 0 mM), 260 in [9] ([1] 3 mM), 133 in [9] ([1] 13 mM) and 123 in data set [9] ([1] 25 mM). The DNd distribution ratio in data set [10] ([1] 0 mM) was 0.87; in [10] ([1] 3 mM) it was 0.32; in [10] ([1] 13 mM) it was 0.08; in data set [10] ([1] 25 mM), 0.07. Further, the SFSm/Nd separation factor in data set [11] ([1] 0 mM) is 7.2; in [11] ([1] 3 mM) it was 8.0; in [11] ([1] 13 mM) it was 2.0; in data set [11] ([1] 25 mM), 2.5. For the same compound, the SFTb/Gd separation factor in [12] ([1] 0 mM) stood at 3.3; in [12] ([1] 3 mM) it was 3.7; in [12] ([1] 13 mM) it was 5.1; in [12] ([1] 25 mM), 5.8. The DSm distribution ratio in data set [13] ([1] 0 mM) turned out to be 6.21; in data set [13] ([1] 3 mM), 2.53; in [13] ([1] 13 mM), 0.16; in data set [13] ([1] 25 mM), 0.17. Also, the DLa distribution ratio in data set [14] (setting [15]) was 0.18; in [14] ([1] 3 mM, 0.1 M DGA), 0.12; in data set [14] ([1] 13 mM, 0.1 M DGA), 0.08; in data set [14] ([1] 25 mM, 0.1 M DGA), 0.06.
